The values that follow come from US8664217B2, “Benzodiazepine compound and pharmaceutical composition” (Otsuka Pharmaceutical Co., Ltd., priority 2008, dated 2014).

Counter-ions that a name gives are not always drawn.

For this assay, the target named is T1, human GIRK1/4 channels (Homo sapiens, UniProt P48544+P48549).
T1 construct: Full-length human GIRK1 cDNA was cloned from HuH cell- and HeLa cell-derived cDNA libraries; Full-length GIRK4 cDNA was amplified from a human heart cDNA library; expressed in transfected cells; host or cells: FLP-IN-CHO cells (Invitrogen)
T1 sequence (P48549 1-501): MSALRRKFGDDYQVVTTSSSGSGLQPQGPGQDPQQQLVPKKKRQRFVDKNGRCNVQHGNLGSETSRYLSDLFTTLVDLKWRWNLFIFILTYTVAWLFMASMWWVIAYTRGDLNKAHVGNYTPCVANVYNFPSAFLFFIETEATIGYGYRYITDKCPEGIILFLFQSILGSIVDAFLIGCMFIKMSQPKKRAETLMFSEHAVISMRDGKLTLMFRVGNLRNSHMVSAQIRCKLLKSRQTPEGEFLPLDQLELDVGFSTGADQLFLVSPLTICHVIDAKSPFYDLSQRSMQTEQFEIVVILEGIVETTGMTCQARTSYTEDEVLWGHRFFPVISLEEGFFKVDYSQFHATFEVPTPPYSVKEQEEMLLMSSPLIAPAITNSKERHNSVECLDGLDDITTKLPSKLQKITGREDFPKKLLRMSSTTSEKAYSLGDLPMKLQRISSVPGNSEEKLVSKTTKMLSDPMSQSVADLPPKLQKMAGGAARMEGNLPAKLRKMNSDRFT
T1 sequence (P48544 1-419): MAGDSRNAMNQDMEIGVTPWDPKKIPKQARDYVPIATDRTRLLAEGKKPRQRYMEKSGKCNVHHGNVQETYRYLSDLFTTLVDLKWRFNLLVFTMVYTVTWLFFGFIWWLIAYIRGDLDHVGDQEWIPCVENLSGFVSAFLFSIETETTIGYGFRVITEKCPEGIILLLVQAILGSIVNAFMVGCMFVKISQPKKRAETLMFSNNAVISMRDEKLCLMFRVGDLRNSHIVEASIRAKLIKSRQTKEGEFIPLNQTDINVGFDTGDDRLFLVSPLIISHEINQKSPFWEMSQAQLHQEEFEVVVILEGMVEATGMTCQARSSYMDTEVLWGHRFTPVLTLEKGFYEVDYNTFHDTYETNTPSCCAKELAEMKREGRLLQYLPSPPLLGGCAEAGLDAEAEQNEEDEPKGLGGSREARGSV
Put plainly: Measurement of human GIRK1/4 channel current by whole-cell patch clamp method (human GIRK1/4-expressing CHO cell line). In kind it is cell-based. The conditions noted are these: whole-cell patch clamp, human GIRK1/4-expressing CHO cells; step end current at −120 mV; test compound 0.1, 1, 10 μM; read-out: GIRK¼ IC50. As for the experimental part:
(2) Production of CHO Cell Line Expressing Human GIRK1/4
CHO cell lines stably expressing human GIRK1/4 channels were prepared in the following manner.
Full-length human GIRK1 cDNA was cloned from HuH cell- and HeLa cell-derived cDNA libraries. Full-length GIRK4 cDNA was amplified from a human heart cDNA library (produced by Clontech Laboratories, Inc.) by PCR using synthetic primers shown in Table 1, and cloned into the Eco-RI restriction enzyme site of pCR-Blunt (produced by Invitrogen Corporation) or into the HincII site of pUC118 (produced by Takara Bio, Inc.).
The obtained human GIRK1 and GIRK4 cDNA sequences correspond to known sequences (NCBI database: GIRK1 (NM_002239) and GIRK4 (NM_000890) respectively). The obtained GIRK1 and GIRK4 cDNA sequences were cloned into the Eco-RI restriction enzyme site of pCR-Blunt (available from Invitrogen Corporation) or into the HincII site of pUC118 (available from Takara Bio, Inc.). A GIRK4 expression vector was constructed by insertion into the BamHI-XhoI site of pcDNA5/FRT. A GIRK1 expression vector was constructed by insertion into the KpnI-XhoI site of pcDNA3.1(+) or pCAG_neo. FLP-IN-CHO cells (produced by Invitrogen Corporation) were transfected with human GIRK1 and GIRK4 expression vectors by using Lipofectamine 2000 (produced by Invitrogen Corporation) according to the protocol enclosed with the reagent or using an electronic induction method (“Nucleofector Kit-T”, produced by Amaxa). First, the cells transfected with the GIRK4 expression vector were cultured in a 10% serum-containing F12 medium (produced by Sigma) supplemented with 600 μg/ml of hygromycin in an incubator with 5% carbon dioxide at 37° C. Then the cells expressing GIRK4 were transfected with the GIRK1 expression vector and were cultured in 10% serum-containing F12 medium supplemented with 350 μg/ml of G418 and 600 μg/ml of hygromycin in an incubator with 5% carbon dioxide at 37° C. to select GIRK1/4 expressing cell lines. Cell populations whose growth was observed after about 2 weeks were isolated using cloning rings, and the obtained single colonies were proliferated. RNA was extracted from single colonies, and single-stranded cDNA was synthesized by a cDNA synthesis kit (produced by Invitrogen Corporation), and the amount of expression was quantified at the mRNA level by real-time PCR (Applied Biosystems, Ltd.). Finally, the expressed current was analyzed by patch clamp method described below. The cell lines expressing a current of 500 pA or more per cell were selected as channel-expressing cell lines for activity measurement by patch clamping method.
(4) Measurement of Ion Channel Current by Patch Clamp Method (Human GIRK1/4-Expressing CHO-K1 Cell Line)
An experiment was carried out using a patch clamp setup at room temperature (20 to 26° C.). A perfusion chamber having a diameter of 20 mm (flow rate: about 5 ml/min) was mounted on the stage of a phase-contrast inverted microscope (produced by Nikon Corporation) placed on a vibration isolation table. A poly-L-lysine (produced by Sigma)-coated coverslip (diameter: 15 mm, produced by Matsunami Glass Ind., Ltd.) on which human GIRK1/4-expressing cells were cultured was placed in the perfusion chamber.
Hyperpolarizing stimulation pulses were applied and ionic current was recorded using a patch clamp amplifier (EPC-7 or EPC-7 PLUS, manufactured by HEKA) and a personal computer (manufactured by IBM Corp.) in which software for data acquisition and analysis of ion channel current (PULSE 8.77, manufactured by HEKA) was installed. The current was measured in the whole-cell configuration of the patch-clamp technique. The tip (resistance: 2 to 4 MΩ) of a borosilicate glass pipette (produced by Sutter Instrument Co.) was gently placed on the cell membrane by using a three-dimensional mechanical micromanipulator (produced by Shoshin EM Corporation). […] Subsequently, stronger suction was applied to break the cell membrane. […]

Usually IC50 stands for the point on the concentration scale where inhibition reaches its midpoint. In the case of `CCN1C(=O)C(C)(C)C(=O)N(C)c2cc(OCCCN(CCn3ccc4occc4c3=O)Cc3cnccc3C)ccc21` [Example 590, 1-ethyl-3,3,5-trimethyl-7-(3-{(4-methylpyridin-3-ylmethyl)-[2-(4-oxo-4H-furo[3,2-c]pyridin-5-yl)ethyl]-amino}propoxy)-1,5-dihydrobenzo[b][1,4]diazepine-2,4-dione], the IC50 worked out at 2400 nM.

Consider `CCN1C(=O)C(C)(C)C(=O)N(C)c2cc(OCCCN(CCc3cccnc3)Cc3ccncc3C)ccc21` [Example 54, 1-ethyl-3,3,5-trimethyl-7-{3-[(3-methylpyridin-4-ylmethyl)-(2-pyridin-3-ylethyl)amino]propoxy}-1,5-dihydrobenzo[b][1,4]diazepine-2,4-dione trihydrochloride], for which the IC50 was 970 nM. The value for `CCN1C(=O)C(C)(C)C(=O)N(C)c2cc(OCCCN(CCn3ccc4ccccc4c3=O)S(=O)(=O)c3ccccc3)ccc21` [Example 634, N-[3-(1-ethyl-3,3,5-trimethyl-2,4-dioxo-2,3,4,5-tetrahydro-1H-benzo[b][1,4]diazepin-7-yloxy)propyl]-N-[2-(1-oxo-1H-isoquinolin-2-yl)ethyl]benzenesulfonamide] was 490 nM.

With `CCN1C(=O)C(C)(C)C(=O)N(C)c2cc(OCCCN(CCn3ccc4ccoc4c3=O)Cc3ccc(C(F)(F)F)cc3)ccc21` [Example 395], the IC50 turned out to be 330 nM. As to `CCN1C(=O)C(C)(C)C(=O)N(C)c2cc(OCCCN(CCc3cccnc3)Cc3cccc(C#N)c3)ccc21` [Example 229], the IC50 was found to be 690 nM. As for `CCN1C(=O)C(C)(C)C(=O)N(C)c2cc(OCCCN(CCc3cccnc3)S(=O)(=O)c3ccccc3)ccc21` [Example 628, N-[3-(1-ethyl-3,3,5-trimethyl-2,4-dioxo-2,3,4,5-tetrahydro-1H-benzo[b][1,4]diazepin-7-yloxy)propyl]-N-(2-pyridin-3-ylethyl)benzenesulfonamide hydrochloride], the concentration for half-maximal inhibition (IC50) came to 2500 nM. In the case of `CCN1C(=O)C(C)(C)C(=O)N(C)c2cc(OCCCN(CCc3cccnc3)Cc3ccncc3)ccc21` [Example 8, 1-ethyl-3,3,5-trimethyl-7-{3-[(2-pyridin-3-ylethyl)pyridin-4-ylmethylamino]propoxy}-1,5-dihydrobenzo[b][1,4]diazepine-2,4-dione trihydrochloride], the IC50 stood at 930 nM.

Turning to `CCN1C(=O)C(C)(C)C(=O)N(C)c2cc(OCCCN(CCn3ccc4ccccc4c3=O)Cc3ccncc3)ccc21` [Example 23, 1-ethyl-3,3,5-trimethyl-7-(3-{[2-(1-oxo-1H-isoquinolin-2-yl)ethyl]pyridin-4-ylmethylamino}propoxy)-1,5-dihydrobenzo[b][1,4]diazepine-2,4-dione dihydrochloride], the 50% inhibitory concentration (IC50) amounted to 250 nM. As to `CCN1C(=O)C(C)(C)C(=O)N(C)c2cc(OCCCN(CCn3ccc4ccccc4c3=O)Cc3ccco3)ccc21` [Example 132], the half-inhibitory concentration (IC50) is 270 nM. The value for `CCN1C(=O)C(C)(C)C(=O)N(C)c2cc(OCCCN(CCn3ccc4occc4c3=O)Cc3cccnc3)ccc21` [Example 551, 1-ethyl-3,3,5-trimethyl-7-(3-{[2-(4-oxo-4H-furo[3,2-c]pyridin-5-yl)ethyl]pyridin-3-ylmethylamino}-propoxy)-1,5-dihydrobenzo[b][1,4]diazepine-2,4-dione] was 5200 nM. For the compound `CCN1C(=O)C(C)(C)C(=O)N(C)c2cc(OCCCN(CCn3ccc4sccc4c3=O)Cc3cccnc3C)ccc21` [Example 595, 1-ethyl-3,3,5-trimethyl-7-(3-{(2-methylpyridin-3-ylmethyl)-[2-(4-oxo-4H-thieno[3,2-c]pyridin-5-yl)ethyl]-amino}propoxy)-1,5-dihydrobenzo[b][1,4]diazepine-2,4-dione], the IC50 turned out to be 790 nM. With `CCN1C(=O)C(C)(C)C(=O)N(C)c2cc(OCCCN(CCn3ccc4occc4c3=O)Cc3cccnc3C)ccc21` [Example 575, 1-ethyl-3,3,5-trimethyl-7-(3-{(2-methylpyridin-3-ylmethyl)-[2-(4-oxo-4H-furo[3,2-c]pyridin-5-yl)ethyl]-amino}propoxy)-1,5-dihydrobenzo[b][1,4]diazepine-2,4-dione], the IC50 was 500 nM. On to `CCN1C(=O)C(C)(C)C(=O)N(C)c2cc(OCCCN(CCn3ccc4ccoc4c3=O)Cc3cccs3)ccc21` [Example 417], for which the IC50 was determined as 980 nM. In the case of `CCN1C(=O)C(C)(C)C(=O)N(C)c2cc(OCCCN(CCn3ccc4oc(C)cc4c3=O)Cc3ccncc3)ccc21` [Example 464, 1-ethyl-3,3,5-trimethyl-7-(3-{[2-(2-methyl-4-oxo-4H-furo[3,2-c]pyridin-5-yl)ethyl]pyridin-4-ylmethylamino}propoxy)-1,5-dihydrobenzo[b][1,4]diazepine-2,4-dione dihydrochloride], the IC50 stood at 3200 nM. In the case of `CCN1C(=O)C(C)(C)C(=O)N(C)c2cc(OCCCN(CCn3ccc4ccoc4c3=O)Cc3ccccc3C)ccc21` [Example 398], the IC50 was 490 nM. In the case of `CCN1C(=O)C(C)(C)C(=O)N(C)c2cc(OCCCN(CCn3ccc4ccoc4c3=O)Cc3ccncc3)ccc21` [Example 31, 1-ethyl-3,3,5-trimethyl-7-(3-{[2-(7-oxo-7H-furo[2,3-c]pyridin-6-yl)ethyl]pyridin-4-ylmethylamino}propoxy)-1,5-dihydrobenzo[b][1,4]diazepine-2,4-dione dihydrochloride], the IC50 amounted to 2900 nM. For `CCN1C(=O)C(C)(C)C(=O)N(C)c2cc(OCCCN(CCc3cccnc3)Cc3ccccc3)ccc21` [Example 200], the IC50 turned out to be 590 nM. For the compound `CN1C(=O)C(C)(C)C(=O)N(C)c2cc(OCCCN(CCc3cccnc3)Cc3ccnc4ccccc34)ccc21` [Example 51, 1,3,3,5-tetramethyl-7-{3-[(2-pyridin-3-ylethyl)-(quinolin-4-ylmethyl)amino]propoxy}-1,5-dihydrobenzo[b][1,4]diazepine-2,4-dione trihydrochloride], the IC50 was 1500 nM. Regarding `CCN1C(=O)C(C)(C)C(=O)N(C)c2cc(OCCCN(CCn3ccc4ccccc4c3=O)Cc3ccc(C#N)cc3)ccc21` [Example 85], the IC50 is 150 nM.
